Results published in paper PMC10439230 (Scientific Reports, 2023).

Columns and labels:
[1] = tested on: HL-60 (acute promyelocytic leukemia); test: Cytotoxic activity assay (XTT); assay type: cell-based, human; details: for IC50: Homo sapiens, HL-60, 48 h exposure, XTT, read-out: Cell lines, IC50 (μM) HL-60; for Selectivity Index (SI) values HL-60: SI = IC50 normal cell (MRC-5)/ IC50 cancer cell
Excerpt: (§1) The synthetic compounds were screened for their cytotoxic activity using standard MTT or XTT methods[30] against a panel of nine human cancer cell lines and one normal cell line, including MDA-MB-231 (triple-negative breast cancer), T-47D (hormone-dependent breast cancer), HepG2 (hepatocellular carcinoma), A549 (lung adenocarcinoma), H69AR (multidrug-resistant small cell lung carcinoma), HuCCA-1 (cholangiocarcinoma derived from a patient), HeLa (cervical carcinoma), and two leukemia cell lines, HL-60 (acute promyelocytic leukemia) and MOLT-3 (T cell acute lymphoblastic leukemia). MRC-5 normal embryonic lung fibroblast cell line was used to represent normal cells. Chemotherapeutic drugs, doxorubicin and etoposide, were used as positive controls.
(§2) The cells were seeded into 96-well plates (100 µL for adherent cells and 75 µL for suspended cells) at a density of 5000–20,000 cells per well, depending on their growth rates. Adherent and suspended cells were then allowed to grow at 37 °C with 95% humidity and 5% CO2 for 24 h and 30 min, respectively. The cytotoxicity assay was initiated by adding an equal volume of cell culture medium containing tested compound at predetermined concentrations. Following 48 h of exposure, cell viability was determined using MTT assay for adherent cells[51],[52]or XTT assay for suspeended cells. Briefly, for adherent cells, 100 µL of the MTT reagent was added to each well, and the microtiter plates were further incubated for 2.5–4 h. The medium was subsequently replaced with 100 µL of DMSO to dissolve the purple formazan before the absorbance at 550 nm was measured using a microplate reader (a SpectraMax Plus 384) with a reference wavelength of 650 nm. For suspended cells, 75 µL of the XTT reagent was added to each well, and the cells were further incubated for 4 h. Afterwards, the absorbance of orange formazan at 492 nm was measured with a reference wavelength of 690 nm using a microplate reader.

[2] = tested on: MOLT-3 (T cell acute lymphoblastic leukemia); test: Cytotoxic activity assay (XTT); assay type: cell-based, human; details: for IC50: Homo sapiens, MOLT-3, 48 h exposure, XTT, read-out: Cell lines, IC50 (μM) MOLT-3; for Selectivity Index (SI) values MOLT-3: SI = IC50 normal cell (MRC-5)/ IC50 cancer cell
Excerpt: as §1, §2

[3] = tested on: MRC-5 normal embryonic lung fibroblast cell line; test: Cytotoxic activity assay (MTT), normal cells; assay type: cell-based; details: Homo sapiens, MRC5, 48 h exposure, read-out: Cell lines, IC50 (μM) MRC-5
Excerpt: as §1, §2

[4] = tested on: MDA-MB-231 (triple-negative breast cancer); test: Cytotoxic activity assay (MTT); assay type: cell-based, human; details: for IC50: Homo sapiens, MDA-MB-231, 48 h exposure, MTT, read-out: Cell lines, IC50 (μM) MDA-MB-231; for Selectivity Index (SI) values MDA-MB-231: SI = IC50 normal cell (MRC-5)/ IC50 cancer cell
Excerpt: as §1, §2

[5] = tested on: HepG2 (hepatocellular carcinoma); test: Cytotoxic activity assay (MTT); assay type: cell-based, human; details: for IC50: Homo sapiens, HepG2, 48 h exposure, MTT, read-out: Cell lines, IC50 (μM) HepG2; for Selectivity Index (SI) values HepG2: SI = IC50 normal cell (MRC-5)/ IC50 cancer cell
Excerpt: as §1, §2

[6] = tested on: HuCCA-1 (cholangiocarcinoma derived from a patient); test: Cytotoxic activity assay (MTT); assay type: cell-based, human; details: for IC50: Homo sapiens, HuCC-A1, 48 h exposure, MTT, read-out: Cell lines, IC50 (μM) HuCCA-1; for Selectivity Index (SI) values HuCCA-1: SI = IC50 normal cell (MRC-5)/ IC50 cancer cell
Excerpt: as §1, §2

[7] = tested on: H69AR (multidrug-resistant small cell lung carcinoma); test: Cytotoxic activity assay (MTT); assay type: cell-based, human; details: for IC50: Homo sapiens, H69AR, 48 h exposure, MTT, read-out: Cell lines, IC50 (μM) H69AR; for Selectivity Index (SI) values H69AR: SI = IC50 normal cell (MRC-5)/ IC50 cancer cell
Excerpt: as §1, §2

[8] = tested on: HeLa (cervical carcinoma); test: Cytotoxic activity assay (MTT); assay type: cell-based, human; details: for IC50: Homo sapiens, 48 h exposure, MTT, read-out: Cell lines, IC50 (μM) HeLa; for Selectivity Index (SI) values HeLa: SI = IC50 normal cell (MRC-5)/ IC50 cancer cell
Excerpt: as §1, §2

[9] = tested on: T-47D (hormone-dependent breast cancer); test: Cytotoxic activity assay (MTT); assay type: cell-based, human; details: for IC50: Homo sapiens, T47D, 48 h exposure, MTT, read-out: Cell lines, IC50 (μM) T47-D; for Selectivity Index (SI) values T47-D: SI = IC50 normal cell (MRC-5)/ IC50 cancer cell
Excerpt: as §1, §2

[10] = tested on: A549 (lung adenocarcinoma); test: Cytotoxic activity assay (MTT); assay type: cell-based, human; details: for IC50: Homo sapiens, A549, 48 h exposure, MTT, read-out: Cell lines, IC50 (μM) A549; for Selectivity Index (SI) values A549: SI = IC50 normal cell (MRC-5)/ IC50 cancer cell
Excerpt: as §1, §2

Structure (SMILES)	IC50 [1]	Selectivity Index (SI) values HL-60 [1]	IC50 [2]	Selectivity Index (SI) values MOLT-3 [2]	IC50 [3]	IC50 [4]	Selectivity Index (SI) values MDA-MB-231 [4]	IC50 [5]	Selectivity Index (SI) values HepG2 [5]	IC50 [6]	Selectivity Index (SI) values HuCCA-1 [6]	IC50 [7]	Selectivity Index (SI) values H69AR [7]	IC50 [8]	Selectivity Index (SI) values HeLa [8]	IC50 [9]	Selectivity Index (SI) values T47-D [9]	IC50 [10]	Selectivity Index (SI) values A549 [10]
C=C1CC[C@H]2C(C)(C)CCC[C@]2(C)[C@H]1CC/C(C)=C/C(=O)NCc1ccccc1 [Compound 4f, (E)-N-Benzyl-3-methyl-5-((1S,4aS,8aS)-5,5,8a-trimethyl-2-methylene-decahydronaphthalen-1-yl)pent-2-enamide]	87.3 ± 8.47 µM	1.5	> 120 µM	1.0	> 120 µM	> 120 µM	1.0	> 120 µM	1.0	> 120 µM	1.0	> 120 µM	1.0	> 120 µM	1.0	> 120 µM	1.0	> 120 µM	1.0
C=C1CC[C@H]2C(C)(C)CCC[C@]2(C)[C@H]1CC/C(C)=C/C(=O)NCc1ccccn1 [Compound 4g, (E)-3-Methyl-N-(pyridin-2-ylmethyl)-5-((1S,4aS,8aS)-5,5,8a-trimethyl-2-methylenedecahydronaphthalen-1-yl)pent-2-enamide]	22.7 ± 0.36 µM	2.0	20.9 ± 0.99 µM	2.1	44.8 ± 1.62 µM	35.1 ± 0.98 µM	1.3	41.7 ± 1.46 µM	1.1	46.2 ± 0.6 µM	1.0	92.7 ± 1.18 µM	0.5	46.7 ± 1.03 µM	1.0	55.1 ± 2.8 µM	0.8	38.2 ± 0.49 µM	1.2
C=C1CC[C@H]2C(C)(C)CCC[C@]2(C)[C@H]1CC/C(C)=C/C(=O)NCCc1c[nH]c2ccccc12 [Compound 4h, (E)-N-(2-(1H-Indol-3-yl)ethyl)-3-methyl-5-((1S,4aS,8aS)-5,5,8a-trimethyl-2-methylenedecahydronaphthalen-1-yl)pent-2-enamide]	16.8 ± 0.61 µM	2.9	17.1 ± 0.57 µM	2.8	48.2 ± 1.06 µM	23.5 ± 0.36 µM	2.1	40.5 ± 2.25 µM	1.2	42.4 ± 0.5 µM	1.1	71.5 ± 2.47 µM	0.7	20.7 ± 0.4 µM	2.3	> 120 µM	0.4	41.4 ± 2.48 µM	1.2
C=C1CC[C@H]2C(C)(C)CCC[C@]2(C)[C@H]1CC/C(C)=C/C(=O)NOC [Compound 4i, (E)-N-Methoxy-3-methyl-5-((1S,4aS,8aS)-5,5,8a-trimethyl-2-methylene-decahydronaphthalen-1-yl)pent-2-enamide]	24.9 ± 0.45 µM	2.1	21.4 ± 1.29 µM	2.5	52.68 ± 0.03 µM	45 ± 0.86 µM	1.2	44.26 ± 0.4 µM	1.2	49.8 ± 0.18 µM	1.1	96.91 ± 0.46 µM	0.5	53.8 ± 0.83 µM	1.0	41.3 ± 1.61 µM	1.3	45.7 ± 0.63 µM	1.2
C=C1CC[C@H]2C(C)(C)CCC[C@]2(C)[C@H]1CC/C(C)=C/C(=O)NO [Compound 4j, (E)-N-Hydroxy-3-methyl-5-((1S,4aS,8aS)-5,5,8a-trimethyl-2-methylene-decahydronaphthalen-1-yl)pent-2-enamide]	> 120 µM	1.0	> 120 µM	1.0	> 120 µM	> 120 µM	1.0	> 120 µM	1.0	> 120 µM	1.0	> 120 µM	1.0	> 120 µM	1.0	> 120 µM	1.0	> 120 µM	1.0
C=C1CC[C@H]2C(C)(C)CCC[C@]2(C)[C@H]1CC/C(C)=C/C(=O)NN [Compound 4k, (E)-3-Methyl-5-((1S,4aS,8aS)-5,5,8a-trimethyl-2-methylenedecahydro-naphthalen-1-yl)pent-2-enehydrazide]	108 ± 1.53 µM	1.4	29.3 ± 2.43 µM	5.0	145.8 ± 0.34 µM	98.5 ± 3.01 µM	1.5	> 120 µM	0.9	130 ± 2 µM	1.1	> 120 µM	0.9	118.78 ± 0.06 µM	1.2	> 120 µM	0.9	> 120 µM	0.9
